Experimental data published in US20060257935A1, “Hematopoietic factor production promoter” (Ajinomoto Co., Inc., priority 2005, published 2006).

Assays:
[1] = tested on: porcine primary hepatocyte; details: added to medium for porcine primary hepatocyte culture at a high concentration; cited from earlier work
SCF = SCF mRNA quantification by quantitative PCR in bone marrow cells isolated from renal failure rat; assay type: cell-based; details: 2 hours after addition of arginine, 400 μM or 600 μM vs 100 μM
Source text: (§1) A renal failure rat (a rat from which ⅚ of kidney was removed) was produced as follows. A male Wistar rat at 8 weeks of age (Charles River Japan, Inc.) was subjected to the total extirpation of the right kidney and the ⅔ extirpation of the renal cortex of the left kidney under anesthesia with Nembutal and was sutured. After the surgery, the rat was housed under normal housing condition (CRF-1 diet, Charles River Japan, Inc.). Six weeks after the surgery the renal failure rat was killed by diethyl ether, then both femurs were excised and bone marrow cells were isolated. The isolated bone marrow cells were suspended in an IMDM medium with blood amino acid concentration containing 10% FCS. […]
(§2) The quantification of mRNA of each of the hematopoietic factors was determined by the quantitative PCR method mentioned below. Based on the sequences of activin (rat Inhibin betaA), SCF and IGF-1 registered in NCBI (GenBank accession Nos. M37482, NM021843, and NM178886, respectively in the order), oligonucleotide primers to be used for the quantitative PCR method were synthesized. […]
(§3) The quantitative PCR method was in accordance with the method described in SYBRGreen PCR kit (TOYOBO., Ltd.). […] After the quantitative PCR, the presence or absence and size of an amplified product were confirmed by agarose gel electrophoresis. […]

[2] = Blood arginine concentration after oral administration to rats; assay type: in vivo, rat; details: oral single-dose administration of arginine at 1.2 g/kg
[3] = tested on: activin (rat Inhibin betaA); assay: Activin mRNA quantification by quantitative PCR in bone marrow cells isolated from renal failure rat; assay type: cell-based; details: 2 hours after addition of arginine, 400 μM or 600 μM vs 100 μM
Source text: as §1, §2, §3

IGF-1 = IGF-1 mRNA quantification by quantitative PCR in bone marrow cells isolated from renal failure rat; assay type: cell-based; details: 2 hours after addition of arginine, 400 μM or 600 μM vs 100 μM
Source text: as §1, §2, §3

normal rats = details: repeated administration; cited from earlier work
[4] = tested on: mouse bone marrow cells (CFU-E); assay: In vitro mouse CFU-E colony assay (methylcellulose semi-solid medium); assay type: cell-based
Experimental: An in vitro mouse CFU-E colony assay was conducted in accordance with the following method. After a female BDF-1 mouse at 10 weeks of age (Charles River Japan, Inc.) was killed by the cervical dislocation method, bone marrow cells were isolated from the femur and suspended in an IMDM medium (Invitrogen) containing 10% FCS (JRH Bioscience Inc). The bone marrow cells were centrifuged at 1500 rpm for 10 minutes at 4° C. and the precipitated bone marrow cells were resuspended in an amino acid-free IMDM medium and the number of cells was measured. […] At 28 hours after the culture was carried out under the condition of 37° C. and 5% CO2, the number of CFU-E colonies was measured using an inverted microscope. […] The data is expressed as a mean value±SEM. […]

[5] = tested on: patients with renal anemia; details: cited from earlier work
MC3T3-E1 cells = details: cited from earlier work

N[C@@H](Cc1c[nH]c2ccccc12)C(=O)O [triptophan]
gene expression of IGF-1 [1]: increases

C[C@@H](O)[C@H](N)C(=O)O [threonine]
gene expression of IGF-1 [1]: increases

N=C(N)NCCC[C@H](N)C(=O)O [arginine]
production of SCF (relative mRNA level per total RNA) (SCF): promotes the production
blood arginine concentration [2]: about 600 μM
production of activin (relative mRNA level per total RNA) [3]: promotes the production
gene expression of IGF-1 [1]: increases
production of IGF-1 (relative mRNA level per total RNA) (IGF-1): promotes the production
amount of hemoglobin and red blood cells (normal rats): increased
number of CFU-E colonies ([4]; 600 μM arginine added to isolated mouse bone marrow cells, compared with 170 μM): significantly increases
condition of anemia (number of red blood cells) [5]: improved
gene expression of IGF-1 (MC3T3-E1 cells; MC3T3-E1 cells, arginine added at a higher concentration): increases
secretion amount of IGF-1 (MC3T3-E1 cells; MC3T3-E1 osteoblast-like cell line): increases

O=C(O)[C@@H]1CCCN1 [proline]
gene expression of IGF-1 [1]: increases

B1: follistatin: follistatin (FSN, anti-activin, R&D Co.), inhibitor for activin (protein, UniProt P19883 30-344, looked up)
Follistatin: GNCWLRQAKNGRCQVLYKTELSKEECCSTGRLSTSWTEEDVNDNTLFKWMIFNGGAPNCIPCKETCENVDCGPGKKCRMNKKNKPRCVCAPDCSNITWKGPVCGLDGKTYRNECALLKARCKEQPELEVQYQGRCKKTCRDVFCPGSSTCVVDQTNNAYCVTCNRICPEPASSEQYLCGNDGVTYSSACHLRKATCLLGRSIGLAYEGKCIKAKSCEDIQCTGGKKCLWDFKVGRGRCSLCDELCPDSKSDEPVCASDNATYASECAMKEAACSSGVLLEVKHSGSCNSISEDTEEEEEDEDQDYSFPISSILEW
inhibition of CFU-E-colony stimulating activity of arginine ([4]; follistatin 100 ng/ml, 600 μM arginine, 28 hours culture): inhibited
